Where a SMILES comes first, the peptide text is derived from it.
Experiments:
EV71-2A^pro [1] = target: T1, EV71-2A^pro (Human enterovirus 71, UniProt Q66478); assay: EV71-2Apro inhibition assay; assay type: biochemical
T1 sequence (Q66478 863-1012 limits assumed): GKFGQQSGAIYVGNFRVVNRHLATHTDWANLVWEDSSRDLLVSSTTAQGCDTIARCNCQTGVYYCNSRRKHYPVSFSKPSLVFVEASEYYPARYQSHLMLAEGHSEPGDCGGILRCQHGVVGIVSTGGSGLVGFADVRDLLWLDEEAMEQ

EV71-2A^pro [2] = target: T1, EV71-2A^pro; assay: Kinetic activity assay; assay type: biochemical; conditions: from Km values, relative to native substrate (Km 21.3 μM)

Molecule | IC50 (EV71-2A^pro [1]) | higher affinity for EV71-2A^pro than the native substrate (EV71-2A^pro [2])
CC[C@H](C)[C@H](NC(=O)[C@H](CCCCN)NC(=O)[C@H](CC(=O)O)NC(=O)[C@@H](N)CCCNC(=N)N)C(=O)NCC(=O)N[C@@H](Cc1ccccc1)C(=O)N[C@@H](CCCNC(=N)N)C(=O)NCC(=O)N[C@@H](CCCCN)C(=O)N[C@@H](Cc1ccccc1)C(=O)NCC(=O)N[C@@H](CCC(N)=O)C(=O)O [Peptide II] (H-RDKIGFRGKFGQ-OH) | 12.1 ± 1.2 µM | 
Dabcyl-RDKIGFRGKFGQDE-Edans-NH2 [Pseudosubstrate II] |  | 3 fold
